Earlier results, collected in patent publication US11351128B1, “Pharmaceutical compositions and methods of administration” (priority 2021, dated 2022).

soluble in water to the extent of: about 20 mg in 100 ml
SMILES: CCN(CC)C(=S)SSC(=S)N(CC)CC [Disulfiram, tetraethyldisulfane-carbothioamide or 1-(diethylthiocarbamoyl-disulfanyl)-N,N-diethyl-methanethioamide]
